Reference: patent US6828309B2, “Use of pentosan polysulfate to treat certain conditions of the prostate” (The United States of America as represented by the …, priority 2000, dated 2004)

Tests used:
[1] = target: T1, type II 5-alpha-reductase (Homo sapiens, UniProt P31213); settings: Moore et al. 1995; cited from earlier work
T1 sequence (P31213 1-254): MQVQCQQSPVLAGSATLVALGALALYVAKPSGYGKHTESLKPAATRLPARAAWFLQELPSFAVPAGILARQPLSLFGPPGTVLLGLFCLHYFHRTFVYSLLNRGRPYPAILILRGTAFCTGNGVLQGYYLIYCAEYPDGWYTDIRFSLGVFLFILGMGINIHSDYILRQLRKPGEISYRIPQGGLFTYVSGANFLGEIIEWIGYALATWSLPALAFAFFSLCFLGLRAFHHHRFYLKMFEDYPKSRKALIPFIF

human prostate cells = assay: Dose response / growth curves of prostatic smooth muscle cells in 20% FBS, cell counts by Coulter counter; type: cell-based
Protocol: Fragments from the nodular areas of prostatectomy specimens were obtained, cut into small pieces, and incubated in a collagenase solution (3 mg/ml) (Sigma Chemical Co., St. Louis, Mo.) overnight at 37° C. The following day, the digested fragments were resuspended in complete Waymouth's medium (Gibco) containing 20% fetal bovine serum (FBS), L-glutamine, penicillin (100 U/ml), streptomycin (100 μg/ml), and sodium bicarbonate. The digested fragments were then plated into 24-well plates (Nunc Nalge International, Naperville, Ill.) coated with human fibronectin (Collaborative Research). The fragments were left undisturbed in 95% […] and 5% CO2 until the first outgrowth was apparent (by day 7), at which time the cells appeared elongated and stellate and formed parallel arrays. The medium was changed twice a week until the cells reached confluence, at which time the cells were transferred into flasks. All experiments were performed on cells between passage 2 and 10, at which time the cells appeared to have a stable phenotype (i.e., monolayer growth with no morphological change and no hillock formation at confluence). Characterization was performed by staining for a smooth muscle cell actin (Sigma Chemical Co.) and F actin (Molecular Probes) in accordance with manufacturers' directions. All of the cells contained end to end actin filaments when stained with phalloidin. Such staining is characteristic of mesenchymal cells. Since the majority of the cells contained smooth muscle actin (see FIG. 1), the cells were considered to be smooth muscle cells
Dose response curves for the cells were generated by plating cells at 5,000 cells/well in 24-well plates (Nunc) in medium containing 20% FBS. After 36 hours, the medium was replaced with fresh 20% FBS containing medium and increasing concentrations of PPS (Elmiron®, Ivax Corp., Miami Fla.) were added. Cells were counted on days 1, 3 and 4 with a Coulter 7.1 cell counter (Coulter, Hialeah, Fla.). The addition of FBS stimulated cell proliferation. […] Cell number decreased 24 hours following treatment with PPS (10 or 100 μg/ml) (see FIG. 2). […]

MMP-2 = assay: Zymography for metalloproteinases in medium of PPS-treated cells (MMP-2); type: cell-based, human; settings: PPS 100 μg/μl daily for 5 days; densitometry
Protocol: (§1) Cells in medium containing 20% FBS were pipetted into 6-well plates and were left undisturbed for 24 hours. On day 0, fresh medium containing 20% serum, with and without PPS ([…]), was added PPS was added daily for 5 days. At day 4, the serum in the medium was reduced to 0.1% FBS so as to avoid interference with the assays. At the time of collection, the cellular supernatants were centrifuged to remove cellular debris. Cell layers from the same wells were used to determine cell number.
(§2) Briefly, medium was diluted with 0.1% FBS and 5× Laemmli buffer so that all samples corresponded to an identical cell number. Gelatinases (MMP-9 and MMP-2) in the medium were assayed using 10% zymogram gels (Novex, San Diego, Calif.). Following electrophoresis, the gels were washed for 1 hour in 2.5% SDS and incubated overnight in collagenase as described previously (Boyle et al., Urology 48: 398-405, 1996). The gels were stained with Coomassie Blue and air-dried. To check for non-specific bands, gels were incubated in 50 mM Tris buffer, with the addition of 25 mM EDTA. Quantitative densitometry was performed using NIH image 1.6. […] However MMP-9 increased 235.7+/−50.31 as compared to control cells (see FIG. 3) (p<001).

MMP-9 = assay: Zymography for metalloproteinases in medium of PPS-treated cells (MMP-9); type: cell-based, human; settings: PPS 100 μg/μl daily for 5 days; densitometry
Protocol: as §1, §2

TIMP-1 = assay: Reverse zymography for tissue inhibitors of metalloproteinases (TIMP-1); type: cell-based, human; settings: PPS-treated cells; densitometry
Protocol: (§3) Tissue inhibitors of metalloproteinases (TIMPS) in the supernatant and the cell layer were assessed by reverse zymography. Briefly, gels were prepared containing gelatinase A. Medium was diluted to normalize for cell number as described in Example 2. Gels were washed for 1 hour in 2.5% SDS following electrophoresis and incubated overnight at 37° C. Coomasie Blue staining and air drying was performed as described in Example 2. Densitometry was performed using NIH image 1.6 to quantitate the TIMPS activity.

TIMP-2 = assay: Reverse zymography for tissue inhibitors of metalloproteinases (TIMP-2); type: cell-based, human; settings: PPS-treated cells; barely detectable in the control medium
Protocol: as §3

type IV collagen = assay: Collagen analysis, type IV collagen immunoassay; type: cell-based, human; settings: PPS-treated vs untreated cells
Protocol: (§4) Another set of cells was plated as described in Example 2 and either treated with PPS or left untreated. The supernatant was centrifuged to remove cellular debris and transferred to a tube containing protease inhibitors (PMSF, NEM, EDTA) and frozen prior to assay.
Type IV collagen: The Assay was performed in a similar way, except the medium and standards were coated on the plate for 8 hours prior to blocking. The concentration of the antibody and the biotinylated goat anti-rabbit IgG was 1:2000. The SAAP was used at 1:1500.
(§5) Type I and type IV (Biodesign) collagen standards were diluted to a final concentration of 0.25-4 ng/well in 0.02 N acetic acid. The curves were linear (r=0.98).

type I collagen = assay: Collagen analysis, type I collagen immunoassay; type: cell-based, human; settings: PPS-treated vs untreated cells
Protocol: as §4
Type I collagen: 100 μl of medium or human collagen type I standard were incubated for 24 hours in a 96 well plate (Nunc). After 3 washes with 0.05% Tween/PBS, the wells were blocked with 1% BSA/PBS for an additional 24 hours. Following 4 washes with 0.05% Tween/PBS, 50 μl of human collagen type I antibody (1:1000) (Biodesiga, Kennebunk, Me.) was applied for 90 minutes. The plate was washed again and biotin-labeled goat anti-rabbit IgG (1:1000, Sigma) was applied for 1 hour. The wells were washed 4 more times and incubated with streptavidin […] (SAAP) at a 1:2500 concentration. P-nitrophenyl phosphate (pNPP, Sigma) was used for color development according to the manufacturer's directions. The plate was read in a Titertek Mulitskan plate reader at 405 nm.
as §5

[2] = patients treated for IC; Sand et al. 1997; cited from earlier work

| Molecule | Decrease in DHT [1] | Prostate specific antigen [1] | Prostate volume reductions [1] | Cell number (human prostate cells; 24 hours following treatment with PPS (10 or 100 μg/ml), 20% FBS) | Cell death, as assessed by trypan blue staining (human prostate cells; PPS 10 or 100 μg/ml) | Decrease in cell number (human prostate cells; day 4 of treatment with 100 μg/ml PPS) | MMP-2 levels, PPS-treated cells vs control cells (MMP-2) | MMP-9 increase as compared to control cells (MMP-9) | TIMP-1 levels increase as compared to control cells (TIMP-1) | TIMP-2 expression in the medium (TIMP-2) | Type IV collagen level (type IV collagen; cell layer) | Type IV collagen level (type IV collagen; medium) | Type I collagen level relative to untreated control (type I collagen; cell layer) | Type I collagen level relative to untreated control (type I collagen; medium) | Serious adverse effects (mainly gastrointestinal or alopecia) [2] |
| --- | --- | --- | --- | --- | --- | --- | --- | --- | --- | --- | --- | --- | --- | --- | --- |
| CC(C)(C)NC(=O)[C@H]1CC[C@H]2[C@@H]3CC[C@H]4NC(=O)C=C[C@]4(C)[C@H]3CC[C@]12C [finasteride] | 72% | reduction | 30% |  |  |  |  |  |  |  |  |  |  |  |  |
| pentosan polysulfate [PPS] |  |  |  | decreased | not associated with cell death | 3 fold | no significant differences | 235.7+/−50.31% of untreated control c | 203.5+/−50.31% of untreated control c | expressed at high levels | 52.99%+/−7.556 % of controls | 43.03%+/−4.029 % of controls | 66.91%+/−25.42 % of controls | 29.97%+/−3.692 % of controls | 3.2 % of chronic users |
